What was measured:
Type in all cases: in vivo
[1] = system: Italian ryegrass (Lolium multiflorum); experiment: Test A preemergence, visual plant response rating; conditions: for Ryegrass, Italian plant response rating: 125 g ai/ha, preemergence, 0 to 100 scale, 0 no effect, 100 complete control; for Ryegrass, Italian plant response rating (0 to 100 scale): 500 g ai/ha Preemergence, approx. 10 days
Outline: (§1)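 Ratings 0–100 (100 = complete control), visual, vs untreated controls at ~10 days. Application pre- or postemergence; solvent mixture with surfactant; loam/sand medium.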

[2] = system: foxtail, giant (giant foxtail, Setaria faberii); experiment: Test A preemergence, visual plant response rating; conditions: for Foxtail, Giant plant response rating: 125 g ai/ha, preemergence, 0 to 100 scale, 0 no effect, 100 complete control; for Foxtail, Giant plant response rating (0 to 100 scale): 500 g ai/ha Preemergence, approx. 10 days
Outline: as §1

[3] = system: ragweed (common ragweed, Ambrosia elatior); experiment: Test A preemergence, visual plant response rating; conditions: for Ragweed plant response rating: 125 g ai/ha, preemergence, 0 to 100 scale, 0 no effect, 100 complete control; for Ragweed plant response rating (0 to 100 scale): 500 g ai/ha Preemergence, approx. 10 days
Outline: as §1

[4] = system: pigweed (Amaranthus retroflexus); experiment: Test A preemergence, visual plant response rating; conditions: for Pigweed plant response rating: 125 g ai/ha, preemergence, 0 to 100 scale, 0 no effect, 100 complete control; for Pigweed plant response rating (0 to 100 scale): 500 g ai/ha Preemergence, approx. 10 days
Outline: as §1

kochia (Kochia scoparia) [5] = experiment: Test A preemergence, visual plant response rating; conditions: for Kochia plant response rating: 125 g ai/ha, preemergence, 0 to 100 scale, 0 no effect, 100 complete control; for Kochia plant response rating (0 to 100 scale): 500 g ai/ha Preemergence, approx. 10 days
Outline: as §1

[6] = system: barnyardgrass (Echinochloa crus-galli); experiment: Test A preemergence, visual plant response rating; conditions: for Barnyardgrass plant response rating: 125 g ai/ha, preemergence, 0 to 100 scale, 0 no effect, 100 complete control; for Barnyardgrass plant response rating (0 to 100 scale): 500 g ai/ha Preemergence, approx. 10 days
Outline: as §1

[7] = system: ducksalad (Heteranhera limosa); experiment: Test B flooded paddy test, visual plant response rating; conditions: 250 g ai/ha, Flood, applied to paddy water, 2-leaf stage, evaluated after 13 to 15 days
Outline: (§2)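 Rice, umbrella sedge, ducksalad and barnyardgrass grown to 2-leaf stage; pots flooded 3 cm above soil and compound applied directly to paddy water, depth maintained.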

rice (Oryza sativa) = experiment: as above; conditions: 250 g ai/ha, Flood, applied to paddy water, 2-leaf stage, evaluated after 13 to 15 days
Outline: as §2

[8] = system: barnyardgrass (Echinochloa crus-galli); experiment: as above; conditions: 250 g ai/ha, Flood, applied to paddy water, 2-leaf stage, evaluated after 13 to 15 days
Outline: as §2

[9] = system: sedge, umbrella (small-flower umbrella sedge, Cyperus difformis); experiment: as above; conditions: 250 g ai/ha, Flood, applied to paddy water, 2-leaf stage, evaluated after 13 to 15 days
Outline: as §2

[10] = system: Italian ryegrass (Lolium multiflorum); experiment: Test A postemergence, visual plant response rating; conditions: for Ryegrass, Italian plant response rating (0 to 100 scale): 500 g ai/ha, postemergence, 0 is no effect, 100 is complete control; for Ryegrass, Italian plant response rating: Postemergence, 125 g ai/ha, 0 to 100 scale (0 no effect, 100 complete control)
Outline: as §1

[11] = system: galium (catchweed bedstraw, Galium aparine); experiment: Test A postemergence, visual plant response rating; conditions: for Galium plant response rating (0 to 100 scale): 500 g ai/ha, postemergence, 0 is no effect, 100 is complete control; for Galium plant response rating: Postemergence, 125 g ai/ha, 0 to 100 scale (0 no effect, 100 complete control)
Outline: as §1

[12] = system: foxtail, giant (giant foxtail, Setaria faberii); experiment: Test A postemergence, visual plant response rating; conditions: for Foxtail, Giant plant response rating (0 to 100 scale): 500 g ai/ha, postemergence, 0 is no effect, 100 is complete control; for Foxtail, Giant plant response rating: Postemergence, 125 g ai/ha, 0 to 100 scale (0 no effect, 100 complete control)
Outline: as §1

[13] = system: ragweed (common ragweed, Ambrosia elatior); experiment: Test A postemergence, visual plant response rating; conditions: for Ragweed plant response rating (0 to 100 scale): 500 g ai/ha, postemergence, 0 is no effect, 100 is complete control; for Ragweed plant response rating: Postemergence, 125 g ai/ha, 0 to 100 scale (0 no effect, 100 complete control)
Outline: as §1

[14] = system: pigweed (Amaranthus retroflexus); experiment: Test A postemergence, visual plant response rating; conditions: for Pigweed plant response rating (0 to 100 scale): 500 g ai/ha, postemergence, 0 is no effect, 100 is complete control; for Pigweed plant response rating: Postemergence, 125 g ai/ha, 0 to 100 scale (0 no effect, 100 complete control)
Outline: as §1

kochia (Kochia scoparia) [15] = experiment: Test A postemergence, visual plant response rating; conditions: for Kochia plant response rating (0 to 100 scale): 500 g ai/ha, postemergence, 0 is no effect, 100 is complete control; for Kochia plant response rating: Postemergence, 125 g ai/ha, 0 to 100 scale (0 no effect, 100 complete control)
Outline: as §1

[16] = system: barnyardgrass (Echinochloa crus-galli); experiment: Test A postemergence, visual plant response rating; conditions: for Barnyardgrass plant response rating (0 to 100 scale): 500 g ai/ha, postemergence, 0 is no effect, 100 is complete control; for Barnyardgrass plant response rating: Postemergence, 125 g ai/ha, 0 to 100 scale (0 no effect, 100 complete control)
Outline: as §1

corn (Zea mays) = experiment: Test A postemergence, visual plant response rating; conditions: for Corn plant response rating (0 to 100 scale): 500 g ai/ha, postemergence, 0 is no effect, 100 is complete control; for Corn plant response rating: Postemergence, 125 g ai/ha, 0 to 100 scale (0 no effect, 100 complete control)
Outline: as §1

[17] = system: blackgrass (Alopecurus myosuroides); experiment: Test A postemergence, visual plant response rating; conditions: for Blackgrass plant response rating (0 to 100 scale): 500 g ai/ha, postemergence, 0 is no effect, 100 is complete control; for Blackgrass plant response rating: Postemergence, 125 g ai/ha, 0 to 100 scale (0 no effect, 100 complete control)
Outline: as §1

[18] = system: wheat (Triticum aestivum); experiment: Test A postemergence, visual plant response rating; conditions: for Wheat plant response rating (0 to 100 scale): 500 g ai/ha, postemergence, 0 is no effect, 100 is complete control; for Wheat plant response rating: Postemergence, 125 g ai/ha, 0 to 100 scale (0 no effect, 100 complete control)
Outline: as §1

CCCc1ccccc1/C(=N\OC)c1c(O)c(C)nn(C)c1=O [Compound 92]
60: Barnyardgrass plant response rating (0 to 100 scale) [6] | Ryegrass, Italian plant response rating (0 to 100 scale) [10] | Foxtail, Giant plant response rating (0 to 100 scale) [12] | Ragweed plant response rating [13] | Pigweed plant response rating [14] | Kochia plant response rating (0 to 100 scale) (kochia (Kochia scoparia) [15])
90: Pigweed plant response rating (0 to 100 scale) [4]
80: Ryegrass, Italian plant response rating (0 to 100 scale) [1] | Foxtail, Giant plant response rating (0 to 100 scale) [2] | Pigweed plant response rating (0 to 100 scale) [14]
40: Ryegrass, Italian plant response rating [1] | Barnyardgrass plant response rating (0 to 100 scale) [16]
20: Ragweed plant response rating [3] | Barnyardgrass plant response rating [16] | Blackgrass plant response rating [17]
10: Kochia plant response rating (0 to 100 scale) (kochia (Kochia scoparia) [5]) | Corn plant response rating (0 to 100 scale) (corn (Zea mays))
30: Ragweed plant response rating (0 to 100 scale) [3] | Pigweed plant response rating [4] | Barnyardgrass plant response rating [6] | Kochia plant response rating (kochia (Kochia scoparia) [15])
0: Kochia plant response rating (kochia (Kochia scoparia) [5]) | Plant response rating, Ducksalad (0 to 100 scale, 0 is no effect, 100 is complete control) [7] | Plant response rating, Rice (0 to 100 scale, 0 is no effect, 100 is complete control) (rice (Oryza sativa)) | Plant response rating, Barnyardgrass (0 to 100 scale, 0 is no effect, 100 is complete control) [8] | Plant response rating, Sedge, Umbrella (0 to 100 scale, 0 is no effect, 100 is complete control) [9] | Corn plant response rating (corn (Zea mays)) | Wheat plant response rating (0 to 100 scale) [18] | Wheat plant response rating [18]
50: Ryegrass, Italian plant response rating [10] | Foxtail, Giant plant response rating [12]
70: Foxtail, Giant plant response rating [2] | Galium plant response rating (0 to 100 scale) [11] | Galium plant response rating [11] | Ragweed plant response rating (0 to 100 scale) [13] | Blackgrass plant response rating (0 to 100 scale) [17]

CO/N=C(/c1ccccc1C(C)C)c1c(O)c(C)nn(C)c1=O [Compound 93]
80: Ryegrass, Italian plant response rating (0 to 100 scale) [10] | Pigweed plant response rating (0 to 100 scale) [14]
0: Ragweed plant response rating [3] | Ragweed plant response rating (0 to 100 scale) [3] | Pigweed plant response rating [4] | Kochia plant response rating (kochia (Kochia scoparia) [5]) | Kochia plant response rating (0 to 100 scale) (kochia (Kochia scoparia) [5]) | Barnyardgrass plant response rating [6] | Plant response rating, Rice (0 to 100 scale, 0 is no effect, 100 is complete control) (rice (Oryza sativa)) | Plant response rating, Barnyardgrass (0 to 100 scale, 0 is no effect, 100 is complete control) [8] | Plant response rating, Sedge, Umbrella (0 to 100 scale, 0 is no effect, 100 is complete control) [9] | Kochia plant response rating (kochia (Kochia scoparia) [15]) | Blackgrass plant response rating [17] | Wheat plant response rating [18]
20: Ryegrass, Italian plant response rating [1] | Pigweed plant response rating (0 to 100 scale) [4] | Barnyardgrass plant response rating (0 to 100 scale) [16]
60: Galium plant response rating [11]
70: Ryegrass, Italian plant response rating (0 to 100 scale) [1] | Galium plant response rating (0 to 100 scale) [11] | Blackgrass plant response rating (0 to 100 scale) [17]
30: Foxtail, Giant plant response rating (0 to 100 scale) [2] | Foxtail, Giant plant response rating [12] | Kochia plant response rating (0 to 100 scale) (kochia (Kochia scoparia) [15])
40: Ryegrass, Italian plant response rating [10] | Foxtail, Giant plant response rating (0 to 100 scale) [12]
65: Plant response rating, Ducksalad (0 to 100 scale, 0 is no effect, 100 is complete control) [7]
50: Barnyardgrass plant response rating (0 to 100 scale) [6] | Ragweed plant response rating (0 to 100 scale) [13] | Pigweed plant response rating [14]
10: Foxtail, Giant plant response rating [2] | Ragweed plant response rating [13] | Barnyardgrass plant response rating [16] | Corn plant response rating (0 to 100 scale) (corn (Zea mays)) | Corn plant response rating (corn (Zea mays)) | Wheat plant response rating (0 to 100 scale) [18]

From patent US20210045385A1, “PYRIDAZINONE-SUBSTITUTED KETOXIMES AS HERBICIDES” (FMC Corporation, priority 2018, published 2021)
